Source: patent publication US8461305B2, “L-fucose α1→6 specific lectin” (J-Oil Mills, Inc., priority 2008, dated 2013)

Test: frontal affinity chromatography (FAC), association constant to PA sugar chains without L-fucose
Type: binding
Details: for association constant Ka: 25 degrees C.
How it was run: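 Lectin coupled via primary amines to NHS-activated sepharose in a miniature column, run in TBS (pH 7.4) at 0.125 ml/min and 25 degrees C. PA sugar chains (3.75 nM or 7.5 nM) applied in excess, with elution monitored by fluorescence (ex 310/em 380 nm). Ka calculated from front-end delay (V−Vo) versus PA rhamnose and effective ligand amount (Bt).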

## Pholiota terrestris lectin [PTL, novel L-fucose α1→6 specific lectin purified from the mushroom Pholiota terrestris]
FAC
  binding to sugar chain not having L-fucose: not bound
Sugar chain No. 001
  association constant Ka: <1000 M⁻¹
Sugar chain No. 002
  association constant Ka: <1000 M⁻¹
Sugar chain No. 003
  association constant Ka: <1000 M⁻¹
Sugar chain No. 004
  association constant Ka: <1000 M⁻¹
Sugar chain No. 005
  association constant Ka: <1000 M⁻¹
Sugar chain No. 006
  association constant Ka: <1000 M⁻¹
Sugar chain No. 007
  association constant Ka: <1000 M⁻¹
Sugar chain No. 008
  association constant Ka: <1000 M⁻¹
Sugar chain No. 009
  association constant Ka: <1000 M⁻¹
Sugar chain No. 010
  association constant Ka: <1000 M⁻¹
Sugar chain No. 011
  association constant Ka: <1000 M⁻¹
Sugar chain No. 012
  association constant Ka: <1000 M⁻¹
Sugar chain No. 013
  association constant Ka: <1000 M⁻¹
Sugar chain No. 014
  association constant Ka: <1000 M⁻¹
Sugar chain No. 101
  association constant Ka: <1000 M⁻¹
Sugar chain No. 103
  association constant Ka: <1000 M⁻¹
Sugar chain No. 104
  association constant Ka: <1000 M⁻¹
Sugar chain No. 105
  association constant Ka: <1000 M⁻¹
Sugar chain No. 107
  association constant Ka: <1000 M⁻¹
Sugar chain No. 108
  association constant Ka: <1000 M⁻¹
Sugar chain No. 301
  association constant Ka: <1000 M⁻¹
Sugar chain No. 304
  association constant Ka: <1000 M⁻¹
Sugar chain No. 305
  association constant Ka: <1000 M⁻¹
Sugar chain No. 307
  association constant Ka: <1000 M⁻¹
Sugar chain No. 308
  association constant Ka: <1000 M⁻¹
Sugar chain No. 313
  association constant Ka: <1000 M⁻¹
Sugar chain No. 314
  association constant Ka: <1000 M⁻¹
Sugar chain No. 323
  association constant Ka: <1000 M⁻¹
Sugar chain No. 501
  association constant Ka: <1000 M⁻¹
Sugar chain No. 502
  association constant Ka: <1000 M⁻¹
Sugar chain No. 503
  association constant Ka: <1000 M⁻¹
Sugar chain No. 504
  association constant Ka: <1000 M⁻¹
Sugar chain No. 701
  association constant Ka: <1000 M⁻¹
Sugar chain No. 702
  association constant Ka: <1000 M⁻¹
Sugar chain No. 703
  association constant Ka: <1000 M⁻¹
Sugar chain No. 704
  association constant Ka: <1000 M⁻¹
Sugar chain No. 705
  association constant Ka: <1000 M⁻¹
Sugar chain No. 706
  association constant Ka: <1000 M⁻¹
Sugar chain No. 707
  association constant Ka: <1000 M⁻¹
Sugar chain No. 708
  association constant Ka: <1000 M⁻¹
Sugar chain No. 709
  association constant Ka: <1000 M⁻¹
Sugar chain No. 710
  association constant Ka: <1000 M⁻¹
Sugar chain No. 711
  association constant Ka: <1000 M⁻¹
Sugar chain No. 712
  association constant Ka: <1000 M⁻¹
Sugar chain No. 713
  association constant Ka: <1000 M⁻¹
Sugar chain No. 715
  association constant Ka: <1000 M⁻¹
Sugar chain No. 716
  association constant Ka: <1000 M⁻¹
Sugar chain No. 717
  association constant Ka: <1000 M⁻¹
Sugar chain No. 724
  association constant Ka: <1000 M⁻¹
Sugar chain No. 725
  association constant Ka: <1000 M⁻¹
Sugar chain No. 728 (as listed in Table 7)
  association constant Ka: <1000 M⁻¹
Sugar chain No. 732
  association constant Ka: <1000 M⁻¹
Sugar chain No. 733
  association constant Ka: <1000 M⁻¹
Sugar chain No. 734
  association constant Ka: <1000 M⁻¹
Sugar chain No. 735
  association constant Ka: <1000 M⁻¹
Sugar chain No. 736
  association constant Ka: <1000 M⁻¹
Sugar chain No. 737
  association constant Ka: <1000 M⁻¹
Sugar chain No. 738
  association constant Ka: <1000 M⁻¹
Sugar chain No. 901
  association constant Ka: <1000 M⁻¹
Sugar chain No. 902
  association constant Ka: <1000 M⁻¹
Sugar chain No. 903
  association constant Ka: <1000 M⁻¹
Sugar chain No. 905
  association constant Ka: <1000 M⁻¹
Sugar chain No. 906
  association constant Ka: <1000 M⁻¹
Sugar chain No. 907
  association constant Ka: <1000 M⁻¹
